Measurements as given in patent publication US10227376B2, “Radiolabeled cationic steroid antimicrobials and diagnostic methods” (BRIGHAM YOUNG UNIVERSITY, priority 2014, dated 2019).

Test: Stability of labeled compounds in human serum
Type: in vitro ADME
Conditions: 64Cu labeled compound, four hours, 37 degrees C., 500 rpm incubation
Experimental: Stability of the labeled CSA-150 and CSA-151 compounds of Example 1 was measured. The labeled compounds were placed in human serum for four hours at 37 degrees C. at 500 rpm incubation.

CCCCCCCCN(CCCC(C)[C@H]1CC[C@H]2[C@@H]3[C@H](OCCCNC(C)=O)C[C@@H]4C[C@H](OCCCNC(C)=O)CC[C@]4(C)[C@H]3C[C@H](OCCCNC(C)=O)[C@]12C)C(=O)NCCOCCOCCOCCOCCNC(=O)CN1CCN(CC(=O)O)CCN(CC(=O)O)CC1 (stereo partly shown) (64Cu complex, metal not drawn) [CSA-151]
Stability of the labeled compound (% stable): 100%
